Results reported in patent US20030224992A1, “Transcription factor modulators and uses thereof” (Praecis Pharmaceuticals Inc., priority 2002, published 2003).

Tested on: androgen responsive gene, kallikrein 3 (PSA II transcripts) in LNCaP cells
Test: Down-regulation of androgen receptor responsive gene expression by ARE (real time PCR)
Type: cell-based
Settings: electroporation, 1, 5 or 20 μM, 10 nM DHT, 4 hours

## 5′-AGTCTACGAGTGGGGTTCTTTTTTA-3′ (SEQ ID NO: 24) (DNA AGTCTACGAGTGGGGTTCTTTTTTA; chemistry not given here) [scrambled ARE]
  steady state levels of PSA II transcripts normalized to actin (DHT induction): this was not observed
